Test results reported in US12247004B2, “2-amino-N-(amino-oxo-aryl-lambda6-sulfanylidene)acetamide compounds and their therapeutic use” (Oxford Drug Design Limited, priority 2019, dated 2025).
Values after ≈ are worked out from the molar mass of the structure shown. Where two headings read alike, the source gives them in different places.

How the values were obtained:
[1] = target: Isoleucyl-tRNA synthetase (IleRS) (Escherichia coli (strain K12), UniProt P00956); experiment: Isoleucyl-tRNA synthetase enzyme inhibition (AMP-Glo; single point % inhibition at 100 μM and IC50); assay type: biochemical; conditions: E. coli IleRS; read-out: Enzyme Inhibition - IC50, E. coli IleRS
From the text: Study 1—Enzyme Inhibition
The aminoacylation reaction catalyzed by aminoacyl-tRNA synthetases (aaRS) takes place in two steps. In the first step, aaRS activates its cognate amino acid with ATP; and in the second step the activated amino acid is loaded to its corresponding tRNA. This reaction can be summarized as follows: aaRS+aa+ATP=aaRS-aa-AMP+PPi aaRS-aa-AMP+tRNA=aa-tRNA+AMP+aaRS […]
wherein: aaRS, aminoacyl-tRNA synthetase; aa, amino acid; aaRS-aa-AMP, enzyme-bound to aminoacyl-adenylate; AMP, adenosine monophosphate; aa-tRNA, aminoacyl-tRNA, PPi, inorganic pyrophosphate.
Isoleucyl-tRNA Synthetase a. Single Point Percentage Inhibition
The activity of the pathogenic aaRSs was monitored by measuring AMP production using the commercial kit AMP-Glo (Promega, Madison, USA).
Ligand stock solutions were prepared in 100% DMSO at 10 mM concentration. An assay buffer consisting of 100 mM Tris HCl pH 7.6, 40 mM MgCl, 20 mM KCl and 150 mM NaCl was prepared in dH2O. An enzyme solution containing 51.77 μM IleRS was prepared in assay buffer to provide 30 nM final assay concentration and 75 nM reservoir concentration for a 1:2.5 dilution in the assay. A substrate solution was also prepared in assay buffer with 50 mM L-isoleucine, 10 mM ATP and 100 mg/mL tRNA. A final assay concentration of 500 μM L-isoleucine, 5 μM ATP and 1 mg/mL tRNA and reservoir concentration of 833.33 μM L-isoleucine, 8.33 μM ATP and 1.67 mg/mL tRNA was used for a 1:1.66 dilution in assay.
Enzyme percentage inhibition values were recorded in triplicate at a single point concentration of 100 μM.
Using the same enzymatic assay in a 384-well plate format, ten point concentration response curves were generated for each compound using a top concentration of 100 μM. The known inhibitor, IleAMS was used as a positive control for the IleRS assay. 100% DMSO was used as a negative control. The IC50 was calculated based on non-linear regression analysis.

[2] = target: Leucyl-tRNA synthetase (LeuRS) (Escherichia coli (strain K12), UniProt P07813); experiment: Leucyl-tRNA synthetase enzyme inhibition (AMP-Glo; single point % inhibition at 100 μM and IC50); assay type: biochemical
[3] = Human cell viability / cytotoxicity (CellTiter-Glo, 24 hours); assay type: cell-based; conditions: human, HepG2 cells (ATCC HB-8065); HepG2 ATCC HB-8065, 24 hours; read-out: Cytotoxicity in HepG2 ATCC HB-8065 Cell Line, IC50
Method: Study 3—Human Cell Viability
Compounds were assessed for potential non-specific cytotoxic effects against a human hepatic cell line (HepG2 ATCC HB-8065). 96-well plates were seeded with HepG2 cells in concentration of 15,000 cells per well in 100 μL of MEM growth media completed with 1% NEAA and 1% sodium pyruvate. Border wells were filled with 100 μL of sterile PBS. Two days upon cells incubation, the compounds were added. Compound dilutions were prepared in 96-well V-bottom plate in pure DMSO. Growth media from 5 plates were aspirated and replaced with 98.7 μL of fresh growth media. 1.28 μL of compounds prepared in V-bottom plates were transferred with multichannel pipette into test plates (78.1× dilution). Final DMSO concentration was 1.28% per well. In control wells, 1.28 μL of DMSO was added in 98.7 μL of media. Compounds were tested in duplicates. Cells were incubated with compounds for 24 hours when cell viability was assessed by measuring ATP levels. ATP levels were measured by adding 50 μL of CellTiter-Glo reagent to each well and after 5 minutes of incubation luminescence was measured with SpectraMax i3. The potential effect of tested compounds on cell viability was determined by comparing the signal obtained in presence of different concentrations of the compounds with those obtained in the presence of DMSO only. The potential effects were then calculated and presented as IC50 values (μg/mL).

[4] = tested on: bacteria (ATCC reference strains); experiment: Antibacterial activity, MIC by broth micro-dilution (CLSI)
[5] = Acinetobacter baumannii, read-out: Antibacterial Activity (MIC), E = A. baumannii B1931
[6] = Enterobacter cloacae, read-out: Antibacterial Activity (MIC), B = Enterobacter cloacae B1966
[7] = Escherichia coli, ATCC25922, read-out: Antibacterial Activity (MIC), A = E. coli ATCC 25922
[8] = Haemophilus influenzae, ATCC49247, read-out: Antibacterial Activity (MIC), F = H. influenzae ATCC 49247
[9] = Klebsiella pneumoniae, ATCC700603, read-out: Antibacterial Activity (MIC), C = K. pneumoniae ATCC 700603
[10] = Pseudomonas aeruginosa, ATCC27853, read-out: Antibacterial Activity (MIC), D = P. aeruginosa ATCC 27853
[11] = Escherichia coli, BAA2469, read-out: Antibacterial Activity (MIC), G = E. coli BAA-2469

Chain of Isoleucyl-tRNA synthetase (IleRS) (P00956 whole entry, looked up): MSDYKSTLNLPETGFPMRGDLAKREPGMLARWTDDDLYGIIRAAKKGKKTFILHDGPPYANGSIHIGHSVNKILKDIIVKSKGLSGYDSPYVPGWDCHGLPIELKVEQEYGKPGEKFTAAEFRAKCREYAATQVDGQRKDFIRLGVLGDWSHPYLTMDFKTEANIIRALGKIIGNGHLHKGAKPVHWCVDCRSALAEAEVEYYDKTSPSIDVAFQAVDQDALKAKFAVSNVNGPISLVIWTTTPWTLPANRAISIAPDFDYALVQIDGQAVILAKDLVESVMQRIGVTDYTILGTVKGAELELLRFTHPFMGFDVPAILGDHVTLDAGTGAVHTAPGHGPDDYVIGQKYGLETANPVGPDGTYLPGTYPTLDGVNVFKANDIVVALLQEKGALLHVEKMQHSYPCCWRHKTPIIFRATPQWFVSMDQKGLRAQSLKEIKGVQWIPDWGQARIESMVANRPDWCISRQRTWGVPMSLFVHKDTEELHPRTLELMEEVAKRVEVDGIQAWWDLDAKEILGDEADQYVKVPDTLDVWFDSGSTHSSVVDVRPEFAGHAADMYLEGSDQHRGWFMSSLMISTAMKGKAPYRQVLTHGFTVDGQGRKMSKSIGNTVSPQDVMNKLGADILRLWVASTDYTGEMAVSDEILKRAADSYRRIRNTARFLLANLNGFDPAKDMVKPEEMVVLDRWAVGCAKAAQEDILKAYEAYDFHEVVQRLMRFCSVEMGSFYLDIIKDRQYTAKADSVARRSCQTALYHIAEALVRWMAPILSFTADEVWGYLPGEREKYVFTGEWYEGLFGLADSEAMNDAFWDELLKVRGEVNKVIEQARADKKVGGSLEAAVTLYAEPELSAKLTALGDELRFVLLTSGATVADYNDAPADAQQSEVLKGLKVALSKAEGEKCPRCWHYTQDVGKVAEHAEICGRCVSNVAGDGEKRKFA
Chain of Leucyl-tRNA synthetase (LeuRS) (P07813 whole entry, looked up): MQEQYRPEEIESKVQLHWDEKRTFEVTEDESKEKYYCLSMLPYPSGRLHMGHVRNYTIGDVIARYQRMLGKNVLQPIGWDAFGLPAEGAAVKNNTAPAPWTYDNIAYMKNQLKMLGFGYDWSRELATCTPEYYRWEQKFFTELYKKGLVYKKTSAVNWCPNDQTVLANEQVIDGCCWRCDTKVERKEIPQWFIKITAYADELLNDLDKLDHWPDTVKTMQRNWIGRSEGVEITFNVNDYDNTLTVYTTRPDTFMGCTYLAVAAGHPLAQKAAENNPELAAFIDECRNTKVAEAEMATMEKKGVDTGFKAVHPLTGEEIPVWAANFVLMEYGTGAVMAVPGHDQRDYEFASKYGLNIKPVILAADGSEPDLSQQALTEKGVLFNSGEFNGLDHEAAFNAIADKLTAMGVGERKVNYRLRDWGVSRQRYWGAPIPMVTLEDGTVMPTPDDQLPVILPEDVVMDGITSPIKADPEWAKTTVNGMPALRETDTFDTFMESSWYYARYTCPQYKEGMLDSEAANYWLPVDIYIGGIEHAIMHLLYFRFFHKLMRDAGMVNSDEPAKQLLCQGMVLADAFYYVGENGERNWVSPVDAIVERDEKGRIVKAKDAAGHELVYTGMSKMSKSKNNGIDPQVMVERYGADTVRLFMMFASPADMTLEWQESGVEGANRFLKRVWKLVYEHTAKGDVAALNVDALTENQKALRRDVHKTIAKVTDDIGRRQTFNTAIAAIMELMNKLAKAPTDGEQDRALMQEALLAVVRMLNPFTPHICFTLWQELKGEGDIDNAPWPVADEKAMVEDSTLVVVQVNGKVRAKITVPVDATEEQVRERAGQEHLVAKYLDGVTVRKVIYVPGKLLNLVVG

Row | Structure (SMILES) | IC50 [1] [µM] | IC50 [2] [nM] | IC50 at 24 h [3] [µg/mL] | MIC [4, 5] [µg/mL] | MIC [4, 6] [µg/mL] | MIC [4, 7] [µg/mL] | MIC [4, 8] [µg/mL] | MIC [4, 9] [µg/mL] | MIC [4, 10] [µg/mL] | MIC [4, 11] [µg/mL] | IC50 ([2]; E. coli LeuRS, read-out: Enzyme Inhibition - IC50, E. coli LeuRS) [nM]
1 | CC[C@H](C)[C@H](N)C(=O)N=[S@](N)(=O)c1cccs1 (single isomer, unassigned) [ANASIA-028-1] | 46.5 |  |  |  |  |  |  |  |  |  | 
2 | CC(C)C[C@H](N)C(=O)N=[S@](N)(=O)c1cc(F)ccc1F.Cl [ANASIA-024-1] |  | 141 | > 64 | > 64 | > 64 | 16 | 16 | > 64 | > 64 |  | 
3 | CC[C@H](C)[C@H](N)C(=O)N=[S@](N)(=O)c1ccc(Cl)s1 [ANASIA-029-1] | 67.4 |  |  |  |  |  |  |  |  |  | 
4 | CC[C@H](C)[C@H](N)C(=O)N=[S@](N)(=O)c1cccc(-c2ccccc2)c1 [ANASIA-032-1] | 50.8 |  |  |  |  |  |  |  |  |  | 
5 | CC[C@H](C)[C@H](N)C(=O)N=[S@](N)(=O)c1cccc(Cl)c1 [ANASIA-033-1] | 67.6 |  |  |  |  |  |  |  |  |  | 
6 | CC[C@H](C)[C@H](N)C(=O)N=[S@@](N)(=O)c1ccc(Cl)c(Cl)c1 [ANASIA-036-2] | 30.6 |  |  |  |  |  |  |  |  |  | 
7 | CC(C)C[C@H](N)C(=O)N=[S@](N)(=O)c1cccc(C#N)c1.Cl [ANASIA-041-1] |  | 17.7 | > 64 | > 64 | > 64 | 5.66 | 2.83 | > 64 | > 64 | 64 | 
8 | CC(C)C[C@H](N)C(=O)N=[S@](N)(=O)c1cccc(C(C)C)c1.Cl [ANASIA-043-1] |  | 112 | > 64 | > 64 | > 64 | > 64 | 45.3 | > 64 | > 64 |  | 
9 | CC(C)C[C@H](N)C(=O)N=[S@](N)(=O)c1cccc(Br)c1.Cl [ANASIA-044-1] |  | 71 | > 64 | 64 | 16 | 2 | 2 | 64 | > 64 |  | 
10 | CC(C)C[C@H](N)C(=O)N=[S@](N)(=O)c1cccc(Cl)c1Cl.Cl [ANASIA-046-1] |  | 960 | > 64 | > 64 | > 64 | > 64 | 64 | > 64 | > 64 |  | 
11 | CC(C)C[C@H](N)C(=O)N=[S@](N)(=O)c1cccc(Oc2ccc(Cl)cc2)c1.Cl [ANASIA-047-1] |  | 76.4 | 46.5 | > 64 | > 64 | > 64 | 64 | > 64 | > 64 |  | 
12 | CC[C@H](C)[C@H](N)C(=O)N=[S@@](N)(=O)c1cccc(Oc2ccc(Cl)cc2)c1 [ANASIA-052-2] | 40.1 |  |  |  |  |  |  |  |  |  | 
13 | CC[C@H](C)[C@H](N)C(=O)N=[S@@](N)(=O)c1ccc2c(c1)CCO2 [ANASIA-053-1] | 20.2 |  |  |  |  |  |  |  |  |  | 
14 | CC[C@H](C)[C@H](N)C(=O)N=[S@](N)(=O)c1ccc2cccnc2c1 [ANASIA-054-1] | 83.7 |  |  |  |  |  |  |  |  |  | 
15 | CC[C@H](C)[C@H](N)C(=O)N=[S@@](N)(=O)c1ccc2cccnc2c1 [ANASIA-054-2] | 19.9 |  |  |  |  |  |  |  |  |  | 
16 | CC[C@H](C)[C@H](N)C(=O)N=[S@](N)(=O)c1ccc(OC)cc1 [ANASIA-055-1] | 35.1 |  |  |  |  |  |  |  |  |  | 
17 | CC[C@H](C)[C@H](N)C(=O)N=[S@](N)(=O)c1cccc(C(C)(C)C)c1 [ANASIA-056-1] | 84 |  |  |  |  |  |  |  |  |  | 
18 | CC[C@H](C)[C@H](N)C(=O)N=[S@](N)(=O)c1csc2ccccc12 [ANASIA-057-1] | 27.5 |  |  |  |  |  |  |  |  |  | 
19 | CC[C@H](C)[C@H](N)C(=O)N=S(N)(=O)c1nc(Cl)cs1 (stereo partly shown) [ANASIA-058] | 58.6 |  |  |  |  |  |  |  |  |  | 
20 | CC[C@H](C)[C@H](N)C(=O)N=[S@@](N)(=O)c1cccc(OC(F)F)c1 [ANASIA-069-2] | 13.7 |  |  |  |  |  |  |  |  |  | 
21 | CC(C)C[C@H](N)C(=O)N=[S@](N)(=O)c1scc(Cl)c1Cl.Cl [ANASIA-081-1] |  | 33.9 | > 64 | 32 |  | 2 | 1 | 256 | > 64 | 8 | 
22 | CC(C)C[C@H](N)C(=O)N=[S@@](N)(=O)c1ccccc1F.Cl [ANASIA-087-1] |  | 289 | > 64 | > 64 | 64 | 11.3 | 32 | > 64 | > 64 |  | 
23 | CC(C)C[C@H](N)C(=O)N=[S@](N)(=O)c1cccc(OC(F)F)c1.Cl [ANASIA-088-1] |  | 75.3 | > 64 | > 64 | 64 | 4 | 4 | > 256 | > 64 | 32 | 
24 | CC(C)C[C@H](N)C(=O)N=[S@](N)(=O)c1ccsc1Cl.Cl [ANASIA-092-1] |  | 48.4 | > 64 | 64 |  | 2 | 2 | 64 | > 64 | 11.3 | 
25 | CC(C)C[C@H](N)C(=O)N=S(N)(=O)c1csc2ccsc12 (stereo partly shown) [ANASIA-100] |  |  | > 64 | 32 (≈ 96.5 µM) |  | 0.5 (≈ 1.51 µM) | 0.5 (≈ 1.51 µM) | 64 (≈ 193 µM) | > 64 | 4 (≈ 12.1 µM) | 32.8
26 | COc1ccsc1[S@@](N)(=O)=NC(=O)[C@@H](N)CC(C)C.Cl [ANASIA-108-1] |  | 127 | > 64 | > 64 |  | 8 | 32 | 64 | 64 | 16 | 
